Results from patent publication US8008294B2 (AstraZeneca AB, priority 2006, dated 2011).
Where a name gives a salt, the structure may show the parent alone.

How the values were obtained:
Assay type in all cases: physicochemical
[1] = Photo stability of bulk substance (Suntest CPS+ cabinet)
Procedure: The exposure was 250 Wh/m^2 and 1.2 million lux hours over 29 hours.

[2] = Solution stability (isotonic solution, HPLC analysis); details: 0.1 mg/ml isotonic solution, ascorbic acid 0.5% (w/v), pH 2 and 4, stored four weeks at 4 to 8° C.; citrate salt
[3] = Hygroscopicity by Dynamic Vapour Sorption Analysis (DVS); details: 25° C., citrate salt
Procedure: Dynamic Vapour Sorption Analysis (DVS)
The studies were undertaken using Dynamic Vapour Sorption Appararatus (DVS, Surface Measurement Systems, London UK). The apparatus consists of Cahn micobalance housed inside a temperature-controled cabinet. All experiments were performed at 25° C. The DVS was used to characterize the moisture uptake (w/w %) at different relative humidities (RH). Samples (5-10 mg) were weighed directly into the DSV sample cup and exposed to different relative humidities.

[4] = 29 hours control sample (stored in the dark)
[5] = exposure time 29 hours, 250 Wh/m^2 and 1.2 million lux hours

| SMILES | photo stability of bulk substance [1, 4] | photo stability of bulk substance ([1]; exposure time 0 hours) | photo stability of bulk substance [1, 5] | degradation in solution [2] | photo stability of bulk substance ([1]; 29 hours control sample (stored in the dark), citrate salt) | photo stability of bulk substance ([1]; exposure time 0 hours, citrate salt) | photo stability of bulk substance ([1]; exposure time 29 hours, 250 Wh/m^2 and 1.2 million lux hours, citrate salt) | moisture uptake ([3]; 40% relative humidity) [w/w %] | moisture uptake ([3]; 60% relative humidity) [w/w %] | moisture uptake ([3]; 80% relative humidity) [w/w %] |
| --- | --- | --- | --- | --- | --- | --- | --- | --- | --- | --- |
| N#Cc1ccc2[nH]c(O)c(-c3ccc(CN4CCOCC4)cn3)c2c1 [HCl] | 97.7 | 97.5 | 89.0 |  |  |  |  |  |  |  |
| N#Cc1ccc2[nH]c(O)c(-c3ccc(CN4CCOCC4)cn3)c2c1 [Citrate, 2-Hydroxy-3-[5-(morpholin-4-ylmethyl)pyridin-2-yl]1H-indole-5-carbonitrile citrate salt] |  |  |  | no degradation products | 99.1 | 99.0 | 98.1 | 7.1 | 7.6 | 8.0 |
| N#Cc1ccc2[nH]c(O)c(-c3ccc(CN4CCOCC4)cn3)c2c1 [Free base, 2-Hydroxy-3-[5-(morpholin-4-ylmethyl)pyridin-2-yl]1H-indole-5-carbonitrile] | 96.1 | 96.6 | 83.8 |  |  |  |  |  |  |  |
